In PubChem BioAssay AID1259407 (Chemical Carcinogenesis Research Information System (CCRIS), 2018):
Active and inactive are the calls of the source. How the calls were made is not given here.

Test system: CCRIS mutagenicity, Ames/micronucleus/aberration tests
Assay: CCRIS mutagenicity studies

O=[N+]([O-])c1cccc2c1oc1ccccc12
mutagenic call (Test System: AMES SALMONELLA TYPHIMURIUM, Strain/Indicator: TA98(1,8-DNP6), Metabolic Activation: NONE, Method: PREINCUBATION): active; positive | mutagenic call (Test System: AMES SALMONELLA TYPHIMURIUM, Strain/Indicator: TA98(1,8-DNP6), Metabolic Activation: NONE, Method: SUSPENSION): active; positive | mutagenic call (Test System: AMES SALMONELLA TYPHIMURIUM, Strain/Indicator: TA98(1,8-DNP6), Metabolic Activation: RAT, LIVER, S-9, PCB (5%), Method: PREINCUBATION): active; positive | mutagenic call (Test System: AMES SALMONELLA TYPHIMURIUM, Strain/Indicator: TA98(NR), Metabolic Activation: NONE, Method: PREINCUBATION): active; positive | mutagenic call (Test System: AMES SALMONELLA TYPHIMURIUM, Strain/Indicator: TA98(NR), Metabolic Activation: NONE, Method: SUSPENSION): active; positive | mutagenic call (Test System: AMES SALMONELLA TYPHIMURIUM, Strain/Indicator: TA98(NR), Metabolic Activation: RAT, LIVER, S-9 (10%), Method: PREINCUBATION): active; positive | mutagenic call (Test System: AMES SALMONELLA TYPHIMURIUM, Strain/Indicator: TA98(NR), Metabolic Activation: RAT, LIVER, S-9, 3-METHYLCHOLANTHRENE (10%), Method: PREINCUBATION): active; positive | mutagenic call (Test System: AMES SALMONELLA TYPHIMURIUM, Strain/Indicator: TA98(NR), Metabolic Activation: RAT, LIVER, S-9, BETA-NAPHTHOFLAVONE (10%), Method: PREINCUBATION): active; positive | mutagenic call (Test System: AMES SALMONELLA TYPHIMURIUM, Strain/Indicator: TA98(NR), Metabolic Activation: RAT, LIVER, S-9, PCB (5%), Method: PREINCUBATION): active; positive | mutagenic call (Test System: AMES SALMONELLA TYPHIMURIUM, Strain/Indicator: TA98(NR), Metabolic Activation: RAT, LIVER, S-9, PCB (10%), Method: PREINCUBATION): active; positive | mutagenic call (Test System: AMES SALMONELLA TYPHIMURIUM, Strain/Indicator: TA98(NR), Metabolic Activation: RAT, LIVER, S-9, PHENOBARBITAL (10%), Method: PREINCUBATION): active; positive | mutagenic call (Test System: AMES SALMONELLA TYPHIMURIUM, Strain/Indicator: TA98, Metabolic Activation: NONE, Method: PREINCUBATION): active; positive | mutagenic call (Test System: AMES SALMONELLA TYPHIMURIUM, Strain/Indicator: TA98, Metabolic Activation: NONE, Method: SUSPENSION): active; positive | mutagenic call (Test System: AMES SALMONELLA TYPHIMURIUM, Strain/Indicator: TA98, Metabolic Activation: RAT, LIVER, S-9, PCB (5%), Method: PREINCUBATION): active; positive | mutagenic call (Test System: AMES SALMONELLA TYPHIMURIUM, Strain/Indicator: TA98, Metabolic Activation: RAT, LIVER, S-9, PCB, Method: SUSPENSION): active; positive | mutagenic call (Test System: AMES SALMONELLA TYPHIMURIUM, Strain/Indicator: TA100, Metabolic Activation: NONE, Method: PREINCUBATION): inactive; negative | mutagenic call (Test System: AMES SALMONELLA TYPHIMURIUM, Strain/Indicator: TA100, Metabolic Activation: NONE, Method: SUSPENSION): active; positive | mutagenic call (Test System: AMES SALMONELLA TYPHIMURIUM, Strain/Indicator: TA100, Metabolic Activation: RAT, LIVER, S-9, PCB (5%), Method: PREINCUBATION): active; positive | mutagenic call (Test System: AMES SALMONELLA TYPHIMURIUM, Strain/Indicator: TA100, Metabolic Activation: RAT, LIVER, S-9, PCB, Method: SUSPENSION): active; positive

C[As](O)O
mutagenic call (End Point: In vitro micronucleus, Test System: Human peripheral lymphocytes, Metabolic Activation: None): active; positive in all subjects only at highest dose | mutagenic call (Test System: Mouse lymphoma, Strain/Indicator: L5178Y (TK+/TK-), Metabolic Activation: None, Method: Microwell): active; positive
